Test results: ChEMBL document CHEMBL5579827, “Discovery of orally bioavailable phenyltetrazolium derivatives for the acute treatment and the secondary prevention of ischemic stroke” (Eur J Med Chem, 2024)
Calls of active or inactive are those of the source. The rule behind the calls is not given here.

Legend:
N2a [1] = assay: Neuroprotective activity against OGD/R induced cell injury in mouse N2a cells assessed as cell viability at 10 uM preincubated under hypoxic condition for 2 hrs and measured after 24 hrs (reference value: 28.66 to 30.22 %); type: functional; settings: time 26 hrs, read-out: Activity
[2] = Cmax in Sprague-Dawley rat at 10 mg/kg, po measured upto 8 hrs by LC-MS/MS analysis; type: ADME, organism-based; settings: in vivo
[3] = AUC(0 to t) in Sprague-Dawley rat at 10 mg/kg, po measured upto 8 hrs by LC-MS/MS analysis; type: ADME, organism-based; settings: in vivo
[4] = Tmax in Sprague-Dawley rat at 10 mg/kg, po measured upto 8 hrs by LC-MS/MS analysis; type: ADME, organism-based; settings: in vivo
[5] = AUC(0 to infinity) in Sprague-Dawley rat at 10 mg/kg, po measured upto 8 hrs by LC-MS/MS analysis; type: ADME, organism-based; settings: in vivo
[6] = Half-life in Sprague-Dawley rat at 10 mg/kg, po measured upto 8 hrs by LC-MS/MS analysis; type: ADME, organism-based; settings: in vivo
Mus musculus [7] = assay: Neuroprotective activity against tMCAO-reperfusion induced brain injury in iv dosed SPF C57 mouse model assessed as decrease in cleaved caspase-3 expression measured after 24 hrs by Western blotting analysis; type: functional, organism-based; settings: dose 3-30 mg/kg
[8] = Tmax in ICR mouse at 10 mg/kg, po measured upto 8 hrs by LC-MS/MS analysis; type: ADME, organism-based; settings: in vivo
Mus musculus [9] = assay: Neuroprotective activity against photo-thrombotic SPF C57 mouse model assessed as improvement in motor function at 30 mg/kg, po administered daily for 7 days; type: functional, organism-based; settings: time 7.0 day
[10] = Cmax in Sprague-Dawley rat at 10 mg/kg, po measured at 2 hrs by LC-MS/MS analysis; type: ADME, organism-based; settings: in vivo
[11] = Oral bioavailability in ICR mouse at 10 mg/kg measured upto 8 hrs by LC-MS/MS analysis; type: ADME, organism-based; settings: in vivo
Mus musculus [12] = assay: Neuroprotective activity against tMCAO-reperfusion induced brain injury in iv dosed SPF C57 mouse model assessed as reduction in infarction region measured after 24 hrs; type: functional, organism-based; settings: dose 3-30 mg/kg
Mus musculus [13] = assay: Neuroprotective activity against tMCAO-reperfusion induced brain injury in SPF C57 mouse model assessed as reduction in brain water content at 30 mg/kg, iv measured after 24 hrs; type: functional, organism-based
Mus musculus [14] = species: Mus musculus; assay: Neuroprotective activity against photo-thrombotic SPF C57 mouse model assessed as decrease in sensorimotor impairment measured after day 4 to 7; type: functional, organism-based
N2a [15] = assay: Neuroprotective activity against OGD/R induced cell injury in mouse N2a cells assessed as decrease in caspase-3 activity incubated for 24 hrs; type: functional, cell-based; settings: dose 0.1-100 µM
[16] = Metabolic stability in mouse liver microsomes assessed as intrinsic clearance at 50 uM preincubated with NADPH for 5 mins followed by compound addition and measured upto 60 mins by LC-MS/MS analysis; type: ADME, Microsome; settings: read-out: CLH
Mus musculus [17] = assay: Neuroprotective activity against tMCAO-reperfusion induced brain injury in SPF C57 mouse model assessed as decrease in neurological deficit score at 30 mg/kg, iv measured after 24 hrs; type: functional
Mus musculus [18] = assay: Neuroprotective activity against photo-thrombotic SPF C57 mouse model assessed as change in motor function at 30 mg/kg, po measured after day 1 to 3; type: functional, organism-based
N2a [19] = assay: Neuroprotective activity against OGD/R induced cell injury in mouse N2a cells assessed as reduction in apoptosis at 0.1 to 100 uM incubated for 24 hrs by TUNEL assay; type: functional, cell-based; settings: dose 0.1-100 µM
[20] = Metabolic stability in dog liver microsomes assessed as half life at 50 uM preincubated with NADPH for 5 mins followed by compound addition and measured upto 60 mins by LC-MS/MS analysis; type: ADME, Canis lupus familiaris, Microsome
[21] = Metabolic stability in human liver microsomes assessed as intrinsic clearance at 50 uM preincubated with NADPH for 5 mins followed by compound addition and measured upto 60 mins by LC-MS/MS analysis; type: ADME, Microsome; settings: read-out: CLH
Mus musculus [22] = assay: Neuroprotective activity against tMCAO-reperfusion induced brain injury in iv dosed SPF C57 mouse model assessed as decrease in cytochrome C expression measured after 24 hrs by Western blotting analysis; type: functional, organism-based; settings: dose 3-30 mg/kg
Mus musculus [23] = assay: Neuroprotective activity against tMCAO-reperfusion induced brain injury in SPF C57 mouse model assessed as reduction in infarct volume at 30 mg/kg, iv measured after 24 hrs (reference value: 41.48%); type: functional; set-up: scale not given: the % may be the effect or the level left
[24] = Metabolic stability in monkey liver microsomes assessed as half life at 50 uM preincubated with NADPH for 5 mins followed by compound addition and measured upto 60 mins by LC-MS/MS analysis; type: ADME, Macaca mulatta, Microsome; settings: rhesus monkey
[25] = Half-life in ICR mouse at 10 mg/kg, po measured upto 8 hrs by LC-MS/MS analysis; type: ADME, organism-based; settings: in vivo
[26] = AUC(0 to infinity) in ICR mouse at 1 mg/kg, iv measured upto 8 hrs by LC-MS/MS analysis; type: ADME, organism-based; settings: in vivo
[27] = AUC(0 to t) in ICR mouse at 1 mg/kg, iv measured upto 8 hrs by LC-MS/MS analysis; type: ADME, organism-based; settings: in vivo
[28] = AUC(0 to t) in Sprague-Dawley rat at 10 mg/kg, po measured at 2 hrs by LC-MS/MS analysis; type: ADME, organism-based; settings: in vivo
[29] = Tmax in ICR mouse at 1 mg/kg, iv measured upto 8 hrs by LC-MS/MS analysis; type: ADME, organism-based; settings: in vivo
N2a [30] = assay: Neuroprotective activity against OGD/R induced cell injury in mouse N2a cells assessed as inhibition of cell damage at 0.1 to 100 uM incubated for 24 hrs; type: functional, cell-based; settings: dose 0.1-100 µM
[31] = AUC(0 to infinity) in ICR mouse at 10 mg/kg, po measured upto 8 hrs by LC-MS/MS analysis; type: ADME, organism-based; settings: in vivo
[32] = Metabolic stability in monkey liver microsomes assessed as intrinsic clearance at 50 uM preincubated with NADPH for 5 mins followed by compound addition and measured upto 60 mins by LC-MS/MS analysis; type: ADME, Macaca mulatta, Microsome; settings: rhesus monkey, read-out: CLH
[33] = Cmax in ICR mouse at 10 mg/kg, po measured upto 8 hrs by LC-MS/MS analysis; type: ADME, organism-based; settings: in vivo
Mus musculus [34] = assay: Neuroprotective activity against tMCAO-reperfusion induced brain injury in iv dosed SPF C57 mouse model assessed as decrease in Bax expression measured after 24 hrs by Western blotting analysis; type: functional, organism-based; settings: dose 3-30 mg/kg
[35] = Metabolic stability in mouse liver microsomes assessed as half life at 50 uM preincubated with NADPH for 5 mins followed by compound addition and measured upto 60 mins by LC-MS/MS analysis; type: ADME, Microsome
Mus musculus [36] = assay: Neuroprotective activity against tMCAO-reperfusion induced brain injury in SPF C57 mouse model assessed as reduction in infarct volume at 10 mg/kg, iv measured after 24 hrs; type: functional; set-up: scale not given: the % may be the effect or the level left
[37] = Metabolic stability in human liver microsomes assessed as half life at 50 uM preincubated with NADPH for 5 mins followed by compound addition and measured upto 60 mins by LC-MS/MS analysis; type: ADME, Microsome
[38] = Cmax in ICR mouse at 1 mg/kg, iv measured upto 8 hrs by LC-MS/MS analysis; type: ADME, organism-based; settings: in vivo
[39] = Metabolic stability in rat liver microsomes assessed as half life at 50 uM preincubated with NADPH for 5 mins followed by compound addition and measured upto 60 mins by LC-MS/MS analysis; type: ADME, Microsome
[40] = Metabolic stability in dog liver microsomes assessed as intrinsic clearance at 50 uM preincubated with NADPH for 5 mins followed by compound addition and measured upto 60 mins by LC-MS/MS analysis; type: ADME, Canis lupus familiaris, Microsome; settings: read-out: CLH
[41] = Metabolic stability in rat liver microsomes assessed as intrinsic clearance at 50 uM preincubated with NADPH for 5 mins followed by compound addition and measured upto 60 mins by LC-MS/MS analysis; type: ADME, Microsome; settings: read-out: CLH
Mus musculus [42] = assay: Neuroprotective activity against tMCAO-reperfusion induced brain injury in SPF C57 mouse model assessed as reversal of reduced blood flow in semi-dark band area infarct volume at 3 to 30 mg/kg, iv measured after 24 hrs; type: functional, organism-based; settings: dose 3-30 mg/kg
[43] = AUC(0 to t) in ICR mouse at 10 mg/kg, po measured upto 8 hrs by LC-MS/MS analysis; type: ADME, organism-based; settings: in vivo
N2a [44] = assay: Neuroprotective activity against OGD/R induced cell membrane integrity loss in mouse N2a cells assessed as reduction in LDH release at 0.1 to 100 uM incubated for 24 hrs; type: functional, cell-based; settings: dose 0.1-100 µM

Compound: CCCCC(O)c1ccccc1-c1cc[nH]n1 (centres undefined)
- viability at 10 µM (N2a [1]): 39.5%

Compound: CCCCCC(O)c1ccc(Br)cc1-c1nn[nH]n1 (centres undefined)
- Cmax ([2]; Sprague-Dawley, read-out: Cmax): 13600 ng/mL
- viability at 10 µM (N2a [1]): 38%
- AUC(0-t) at 8 h [3]: 2670 ng·h/mL
- Tmax ([4]; Sprague-Dawley, read-out: Tmax): 15 min

Compound: CCCCC(O)c1ccccc1-c1nnn(C)n1 (centres undefined)
- Cmax ([2]; Sprague-Dawley, read-out: Cmax): 13.1 ng/mL
- viability at 10 µM (N2a [1]): 43.9%
- AUC(0-t) at 8 h [3]: 39.9 ng·h/mL
- AUC(0-inf) ([5]; Sprague-Dawley): 71.5 ng·h/mL
- Tmax ([4]; Sprague-Dawley, read-out: Tmax): 15 min
- half-life ([6]; Sprague-Dawley): 433 min

Compound: CCCC(O)c1ccccc1-c1nn[nH]n1 (centres undefined)
- viability at 10 µM (N2a [1]): 35.6%

Compound: CCCCC(O)c1ccc(Br)cc1-c1nn[nH]n1 (centres undefined)
- Activity (Mus musculus [7]): Dose-Dependent Effect
- Tmax [8]: 15 min
- Activity (Mus musculus [9]): Active
- Cmax ([2]; po, 10 mg/kg, 8 h): 1130 ng/mL
- Cmax [10]: 1070 ng/mL
- bioavailability [11]: 94.9%
- Activity (Mus musculus [12]): Dose-Dependent Effect
- Activity (Mus musculus [13]): Active
- viability at 10 µM (N2a [1]): 56.6%
- Activity (Mus musculus [14]): Dose-Dependent Effect
- Activity (N2a [15]): Dose-Dependent Effect
- microsomal CLint at 50 µM [16]: 89.1 µL/min/mg
- Activity (Mus musculus [17]): 2.07
- Activity (Mus musculus [18]): Active
- Activity (N2a [19]): Active
- half-life at 50 µM [20]: > 186 min
- microsomal CLint at 50 µM [21]: < 7.4 µL/min/mg
- Activity (Mus musculus [22]): Dose-Dependent Effect
- Activity (Mus musculus [23]): 9.59%
- half-life at 50 µM [24]: > 186 min
- half-life [25]: 30.6 min
- AUC(0-inf) [26]: 550 ng·h/mL
- AUC(0-t) at 8 h [27]: 550 ng·h/mL
- AUCt [28]: 5240 ng·h/mL
- AUC(0-t) at 8 h [3]: 6990 ng·h/mL
- Tmax [29]: 4.8 min
- Activity (N2a [30]): Active
- AUC(0-inf) [31]: 5590 ng·h/mL
- AUC ([5]; po, 10 mg/kg, 8 h): 11160 ng·h/mL
- Tmax ([4]; po, 10 mg/kg, 8 h): 120 min
- microsomal CLint at 50 µM [32]: < 7.4 µL/min/mg
- Cmax [33]: 8710 ng/mL
- Activity (Mus musculus [34]): Dose-Dependent Effect
- half-life at 50 µM [35]: 15.6 min
- Activity (Mus musculus [36]): 18.8%
- half-life at 50 µM [37]: > 186 min
- t1/2 ([6]; po, 10 mg/kg, 8 h): 287 min
- Cmax [38]: 3760 ng/mL
- half-life at 50 µM [39]: 38.2 min
- microsomal CLint at 50 µM [40]: < 7.4 µL/min/mg
- microsomal CLint at 50 µM [41]: 36.3 µL/min/mg
- Activity (Mus musculus [42]): Active
- AUC(0-t) at 8 h [43]: 5240 ng·h/mL
- Activity (N2a [44]): Active

Compound: CCCC(O)c1ccc(C2=CCCCC2)cc1-c1nn[nH]n1 (centres undefined)
- viability at 10 µM (N2a [1]): 39.1%

Compound: CCCCC(O)c1ccccc1-c1cccs1 (centres undefined)
- viability at 10 µM (N2a [1]): 35.4%

Compound: CCCCC(O)c1ccc(Br)cc1-c1nnn(CCN(C)C)n1 (centres undefined)
- viability at 10 µM (N2a [1]): 44%
